The supplement of paper PMC10878532, “Sperm Toolbox—A selection of small molecules to study human spermatozoa” (PLOS ONE, 2024)
Where a name gives a salt, the structure may show the parent alone.

Legend:
[1] = test system: human spermatozoa; assay: total motile sperm, percent change vs DMSO (non-capacitating); higher = more of the measured sperm population than DMSO, for viability, fewer PI-positive (dead) cells than DMSO
[2] = test system: human spermatozoa; assay: progressively motile sperm, percent change vs DMSO (non-capacitating); higher = more of the measured sperm population than DMSO, for viability, fewer PI-positive (dead) cells than DMSO; extreme values may be limits of the assay
[3] = test system: human spermatozoa; assay: acrosome-reacted (PNA+) sperm after agonist cocktail, percent change vs DMSO (capacitating); higher = more of the measured sperm population than DMSO, for viability, fewer PI-positive (dead) cells than DMSO; settings: incubation time: 3h, capacitating + agonist cocktail 1h
[4] = test system: human spermatozoa; assay: progressively motile sperm, percent change vs DMSO (capacitating); higher = more of the measured sperm population than DMSO, for viability, fewer PI-positive (dead) cells than DMSO; settings: incubation time: 30min incubation
[5] = test system: human spermatozoa; assay: viability fold change, 1 - (PI-positive fraction / DMSO median); higher = more of the measured sperm population than DMSO, for viability, fewer PI-positive (dead) cells than DMSO; settings: incubation time: 3h, non-capacitating
[6] = test system: HepG2; assay: HepG2 toxicity (resazurin), effect normalised to DMSO (DMSO = 0); higher = more features changed / larger toxic effect; settings: incubation time: 70h incubation
[7] = test system: human spermatozoa; assay: change in acrosome-reacted (PNA+) sperm vs DMSO, no agonist (capacitating); higher = more of the measured sperm population than DMSO, for viability, fewer PI-positive (dead) cells than DMSO; settings: incubation time: 3h
[8] = test system: HeLa; assay: Cell Painting percent induction (share of features beyond 2 z-scores vs DMSO); higher = more features changed / larger toxic effect; extreme values may be limits of the assay; settings: incubation time: 24h incubation
[9] = test system: human spermatozoa; assay: hyperactivated motile sperm, percent change vs DMSO (capacitating); higher = more of the measured sperm population than DMSO, for viability, fewer PI-positive (dead) cells than DMSO; settings: incubation time: 30min incubation
[10] = test system: HeLa; assay: HeLa toxicity: nuclei-count effect normalised to DMSO (DMSO = 0); higher = more features changed / larger toxic effect; settings: incubation time: 24h incubation
[11] = incubation time: 10min incubation, 9.99 µM
[12] = incubation time: 10min incubation, 29.9 µM
[13] = incubation time: 3h incubation, 9.99 µM
[14] = incubation time: 3h incubation, 29.9 µM
[15] = incubation time: 6h incubation, 9.99 µM
[16] = incubation time: 6h incubation, 29.9 µM
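For progressively motile sperm, percent change vs DMSO (non-capacitating) in this document: pooled live human sperm from at least 3 donors, tracked by automated microscopy in 0.5 s time-lapse movies, compounds at 10 and 30 µM, versus median of 16 DMSO wells per plate.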
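For total motile sperm, percent change vs DMSO (non-capacitating) in this document: sperm pooled from at least 3 donors, tracked in 0.5 s time-lapse movies by automated microscopy after 10 min, 3 h or 6 h with compound at 10 or 30 µM.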

Compound | total motile sperm [1, 11] [%] | total motile sperm [1, 12] [%] | total motile sperm [1, 13] [%] | total motile sperm [1, 14] [%] | total motile sperm [1, 15] [%] | total motile sperm [1, 16] [%] | progressively motile sperm [2, 11] [%] | progressively motile sperm [2, 12] [%] | progressively motile sperm [2, 13] [%] | progressively motile sperm [2, 14] [%] | progressively motile sperm [2, 15] [%] | progressively motile sperm [2, 16] [%] | acrosome-reacted ([3]; 9.99 µM) [%] | acrosome-reacted ([3]; 29.9 µM) [%] | progressively motile sperm ([4]; 9.99 µM) [%] | progressively motile sperm ([4]; 29.9 µM) [%] | viability fold change ([5]; 9.99 µM) | viability fold change ([5]; 29.9 µM) | HepG2 toxicity ([6]; 10 µM) [%] | HepG2 toxicity ([6]; 30 µM) [%] | change in acrosome-reacted ([7]; 9.99 µM) [%] | change in acrosome-reacted ([7]; 29.9 µM) [%] | Cell Painting percent induction ([8]; 9.99 µM) [%] | Cell Painting percent induction ([8]; 29.9 µM) [%] | hyperactivated motile sperm ([9]; 9.99 µM) [%] | hyperactivated motile sperm ([9]; 29.9 µM) [%] | HeLa toxicity: nuclei-count effect normalised ([10]; 9.99 µM) [%] | HeLa toxicity: nuclei-count effect normalised ([10]; 29.9 µM) [%]
CC(C)C(C(=O)OC(C#N)c1cccc(Oc2ccccc2)c1)c1ccc(Cl)cc1 (centres undefined) [Fenvalerate] | -12.2 | -13.5 | -9.13 | -13 | -6.57 | -13.4 | -11.9 | -13.7 | 3.76 | -3.88 | 11.3 | 5.45 | 16 | 11.8 | -16 | -21.3 | -0.675 | 0.413 | 6.05 | -6.97 | 1.05 | 0.945 | 0 | 0.036 | -11.7 | -10.3 | 8.15 | 4.61
C=C[C@@]1(C)CC(=O)[C@@]2(O)[C@](C)(O1)[C@@H](OC(C)=O)[C@@H](O)C1C(C)(C)CC[C@H](O)[C@@]12C (some centres undefined) [Forskolin] | 0.618 | 0.675 | -0.0205 | 4.68 | -0.697 | -0.227 | 0.859 | 0.86 | 3.82 | 13.8 | -0.781 | 12 | 0.165 | -4.34 | 7.73 | 8.32 | -0.712 | -0.989 | 3.42 | -7.11 | 0.404 | 0.226 | 1.19 | 0.108 | 26.6 | 5.16 | -1.74 | -1.47
O=c1c(-c2ccc(O)cc2)coc2cc(O)cc(O)c12 [Genistein] | -0.344 | -2.3 | -0.864 | 0.829 | -0.945 | -6.76 | 5.98 | 2.04 | 6.38 | 0.504 | 9.21 | 2.89 | 4.37 | 8.14 | 9.31 | 12 | -0.643 | -0.0998 | 6.96 | -8.2 | 1.12 | 1.51 | 0.108 | 0.612 | 20.2 | -0.318 | 17.4 | 22.9
Cc1cc2c(C(C)C)c(O)c(O)c(C=O)c2c(O)c1-c1c(C)cc2c(C(C)C)c(O)c(O)c(C=O)c2c1O [Gossypol] | -1.73 | 0.377 | -2.73 | -0.0743 | -0.633 | -2.29 | -3.27 | -2.36 | 3.33 | -8.54 | 12.2 | -12.2 | -15.6 | -28.9 | -0.382 | 7.08 | -0.0154 | 0.577 | 54.9 | 102 | 1.41 | 1.17 | 0.072 | 17.1 | -21.9 | -39.1 | 27.1 | 73.1
O=S(=O)(NCCNC/C=C/c1ccc(Br)cc1)c1cccc2cnccc12 [H 89 dihydrochloride] | 5.7 | 1.67 | 2.42 | 2.31 | 2.24 | 1.63 | 12.9 | 3.24 | 21.9 | 3.91 | 27.7 | 10.5 | 4.9 | 11.9 | 9.41 | 1.95 | -0.8 | -1.21 | -3.98 | 92.3 | 0.62 | 0.493 | 0.648 | 1.84 | 4.83 | -35.2 | 7.55 | 17.5
Oc1c(Cl)cc(Cl)c(Cl)c1Cc1c(O)c(Cl)cc(Cl)c1Cl [Hexachlorophene] | -1.87 | -5.83 | -1.02 | -8.13 | -1.96 | -7.29 | -23.5 | -48.4 | -39.7 | -63.9 | -37.2 | -61.3 | -9.07 | -13.3 | -5.64 | -8.81 | -0.213 | 0.344 | 56.3 | 74.5 | 0.634 | 0.899 | 0 | 0.18 | -24.4 | -58.1 | 14 | 33.9
CC(C)Cn1c(=O)n(C)c(=O)c2[nH]cnc21 [IBMX] | -1.18 | 1.45 | -5.33 | -3.42 | -1.15 | -4.45 | 18.9 | 35.7 | 40.5 | 53.9 | 53.1 | 61.2 | 36.8 | 69.3 | 12.9 | 19.2 | -0.424 | -0.627 | 7.96 | -0.365 | 0.651 | 1.04 | 0 | 0.036 | 67.7 | 147 | 3.07 | -2.27
CC(C)Cn1cnc2c(N)nc3ccccc3c21 [Imiquimod] | -0.548 | 1.37 | -4.33 | -4.6 | -4.54 | -9.83 | 24.4 | 32.7 | 49.3 | 51.2 | 58.8 | 51.3 | 34.9 | 56.5 | 7.22 | 11.8 | -0.324 | -0.489 | 10.2 | -1.53 | 1.03 | 1.32 | 0.612 | 0 | 65.2 | 131 | 6.28 | 5.01
